This note sets out measurements from patent US20040143025A1, “Carbon monoxide generating compunds for treatment of vascular, inflammatory and immune disorders” (priority 2002, published 2004).

Like-named read-outs stand apart in the source and are kept apart here.

For one test, the system named is C57BL/6 ApoE (−/−) mice. Nature of the test: Carotid wire injury in atherogenic ApoE-/- mouse, neointimal formation. It is filed as in vivo. Conditions: day -1 to day 28. On the procedure:
The effects of CO generated though metabolic degradation of methylene chloride are investigated in an atherosclerotic mouse carotid intimal denudation model. Female C57BL/6 ApoE (−/−) mice (10-12 weeks old, n=12/group) are fed Western diet for 1 week prior to injury and 4 weeks after injury. On day 0 mice are anesthesized with ip injection of ketamine (80 mg/kg) & xylazine (5 mg/kg). The left carotid artery is isolated and two ligatures (6-O silk) are placed around the external carotid artery, ligatures are also placed around the common and internal carotid arteries. After the distal external carotid ligatures are tied, the carotid is incised with Vannas scissors proximal to the ligature. A curved flexible wire (0.35 mm/0.014 in diameter) is introduced into the external carotid and passed three times along the wall of the common carotid while being rotated. Upon removal of the wire the proximal carotid ligature is tied and the skin is reopposed with 6-O silk.
Methylene chloride (25, 100, 400 mg/kg/day) is administered intraperitoneally or orally starting on day-1 until day 28. A control group is treated with vehicle. On day 28 animals are sacrificed and after incision, the right and left common, external, and internal carotids are ligated. After sternotomy, common carotids are dissected further to the aortic arch. A 27-gauge needle is placed in the left ventricle and a systemic perfusion with phosphate buffered paraformaldehyde (100 mM, 4% wt/vol, pH 7.3) is performed at 100 mmHg via the left ventricular cannula. Subsequently, the common, internal and external carotid arteries are transected and removed. Specimens are dehydrated in ethanol and xylene, and embedded in paraffin. Tissue sections are stained and VSMC proliferation is assessed microscopically by histomorphometry. Methylene chloride therapy at 400, 100, and 25 mg/kg/day inhibits neointimal formation by 90%, 75% and 30% respectively.

A further test has as its system rat liver. Further details: species or system Sprague Dawley (SD) rats. The source says:
Animals. Male Sprague Dawley (SD) rats weighing between 300-350 g (Harlan Sprague Dawley, Indianapolis, Ind.) were used. Animals were fed standard rodent chow and water and libitum and cared according to guidelines approved by the American Association of Laboratory Animal Care.
Isolated perfusion liver apparatus. An isolated perfusion liver apparatus was used, as described in Amersi et al., supra, and Maulik et al., Circulation 94:398-406 (1996). In brief, syngeneic rat blood, obtained for each experiment from four donor animals, was diluted to a hematocrit of 15% with Krebs Ringer Bicarbonate Buffer (mM: NaCl 118, KH2POF 1, MgSO4 0.9, CaCl2 2.5, dextrose 11.1, and NaHCO2 25), and maintained at pH of 7.4. The perfusate was pumped from a heated reservoir that warmed the perfusate to 37° C. through silastic tubing oxygenator connected to a flow meter that measured portal vein blood flow (Cole Palmer Instruments, Chicago, Ill.). Portal pressure was kept constant via a pressure monometer connected to a T fitting in the portal vein canula. […] During the experiment, pH, temperature and oxygenation were kept constant.
Ex vivo cold ischemia model. SD rats underwent isoflourane anesthesia and systemic heparinization. […] The livers were then stored for 24 h at 4° C. in UW solution, followed by ex-vivo reperfusion for 1-2 h on an isolated perfusion liver apparatus. Portal vein blood flow, pressure, and bile production were recorded every 30 min. Blood samples were collected at 30 min intervals and serum glutamic oxaloacetic transaminase (sGOT) levels were measured using an autoanalyzer from ANTECH Diagnostics (Irvine, Calif.). At the conclusion of experiment, a portion of the liver was snap frozen for mRNA extraction/Western blot analyses; the remaining samples were fixed in formalin for H&E staining.
The role of CO—HO-1 pathway in hepatic I/R injury was studied in five major treatment groups (n=4.8 rats/group). In Group 1, the extent of I/R injury was contrasted between livers perfused ex-vivo with blood saturated with CO (300 parts per million [ppm]; 0.03% balanced air) vs. air alone (21% O2). As NO may enhance HO-1 expression (Brouard et al., supra), we then investigated a link between the two gaseous molecules in Group 2 livers, which were perfused with CO supplemented with 25 mM NG-nitro-L-arginine methyl ester hydrochloride (L-NAME; Sigma Chemicals, St. Louis, Mo.), an inducible NO inhibitor. […] To analyze as to whether exogenous CO can substitute for HO-1 in preventing I/R insult, Group 4 rats were treated 24 h prior to liver procurement with ZnPP)(1.5 mg/kg/i.p; Porphyrin Products, Logan Utah), an HO-1 inhibitor, followed by ex vivo perfusion with CO. […] Brouard et al., supra. Therefore, Group 5 rats were pre-treated 60 min before harvest with p38 MAPK inhibitor, SB203580, a pyridinyl imidazol (25 mg/kg orally; Sigma). In addition, prior to reperfursion with CO, SB203580 (20 μM) was added to the perfusate.

[1] abbreviates: 24 h cold storage, 2 h reperfusion, CO 300 ppm vs air alone.

Consider `ClCCl` [methylene chloride], for which the “inhibition of neointimal formation” value with C57BL/6 ApoE (−/−) mice (25 mg/kg/day) was found to be 30%; with C57BL/6 ApoE (−/−) mice (100 mg/kg/day), 75%; in the test on C57BL/6 ApoE (−/−) mice (400 mg/kg/day), 90%.
For the molecule `[C-]#[O+]` [CO, carbon monoxide], the bile production entry in the test with rat liver (setting [1]) is given as “significantly more bile”. Further, the portal vein resistance entry with rat liver (setting [1]) was “significantly decreased”. The sGOT levels is given as 163±27 IU/L in the test with rat liver (CO 300 ppm alone, 2 h reperfusion) and 79±14 IU/L in the test with rat liver (CO 300 ppm, 1 h reperfusion).
